According to patent US10239925B2, “Peptides and combination of peptides for use in immunotherapy against ovarian cancer and other cancers” (IMMATICS BIOTECHNOLOGIES GMBH, priority 2015, dated 2019):

Experiments:
CD8+ T cells = experiment: In vitro immunogenicity: priming of CD8+ T cells with aAPCs loaded with peptide/MHC and anti-CD28, multimer readout; assay type: cell-based, human; conditions: for Wells positive [%]: HLA-A*02 restricted peptides, percentage of positive wells (among evaluable); for donors: percentage of positive donors; for wells: percentage of positive wells
Method: In an aspect, the peptides are pre-screened for immunogenicity before being included in the warehouse. By way of example, and not limitation, the immunogenicity of the peptides included in the warehouse is determined by a method comprising in vitro T-cell priming through repeated stimulations of CD8+ T cells from healthy donors with artificial antigen presenting cells loaded with peptide/MHC complexes and anti-CD28 antibody.
FIGS. 3A to 3F show exemplary immunogenicity data: flow cytometry results after peptide-specific multimer staining. CD8+ T cells were primed using artificial APCs coated with anti-CD28 mAb and HLA-A*02 in complex with SeqID No 662 (FIG. 3A, left panel), SeqID No 663 (FIG. 3B, left panel), SeqID No 11 peptide (FIG. 3C, left panel), SeqID No 198 peptide (FIG. 3D, left panel), SeqID No 587 peptide (FIG. 3E, left panel) and SeqID No 427 peptide (FIG. 3F, left panel), respectively. After three cycles of stimulation, the detection of peptide-reactive cells was performed by 2D multimer staining with A*02/SeqID No 662 (FIG. 3A), A*02/SeqID No 663 (FIG. 3B), A*02/SeqID No 11 (FIG. 3C), A*02/SeqID No 198 (FIG. 3D), A*02/SeqID No 587 (FIG. 3E) or A*02/SeqID No 427 (FIG. 3F). Right panels (FIGS. 3A, 3B, 3C, 3D, 3E, and 3F) show control staining of cells stimulated with irrelevant A*02/peptide complexes. Viable singlet cells were gated for CD8+ lymphocytes. Boolean gates helped excluding false-positive events detected with multimers specific for different peptides. Frequencies of specific multimer+ cells among CD8+ lymphocytes are indicated.
In Vitro Immunogenicity for MHC Class I Presented Peptides
In order to obtain information regarding the immunogenicity of the TUMAPs of the present invention, the inventors performed investigations using an in vitro T-cell priming assay based on repeated stimulations of CD8+ T cells with artificial antigen presenting cells (aAPCs) loaded with peptide/MHC complexes and anti-CD28 antibody.
In Vitro Priming of CD8+ T Cells
In order to perform in vitro stimulations by artificial antigen presenting cells loaded with peptide-MHC complex (pMHC) and anti-CD28 antibody, the inventors first isolated CD8+ T cells from fresh HLA-A*02 leukapheresis products via positive selection using CD8 microbeads (Miltenyi Biotec, Bergisch-Gladbach, Germany) of healthy donors obtained from the University clinics Mannheim, Germany, after informed consent.
PBMCs and isolated CD8+ lymphocytes were incubated in T-cell medium (TCM) until use consisting of RPMI-Glutamax (Invitrogen, Karlsruhe, Germany) supplemented with 10% heat inactivated human AB serum (PAN-Biotech, Aidenbach, Germany), 100 U/ml Penicillin/100 μg/ml Streptomycin (Cambrex, Cologne, Germany), 1 mM sodium pyruvate (CC Pro, Oberdorla, Germany), 20 μg/ml Gentamycin (Cambrex). 2.5 ng/ml IL-7 (PromoCell, Heidelberg, Germany) and 10 U/ml IL-2 (Novartis Pharma, Nümberg, Germany) were also added to the TCM at this step.
Generation of pMHC/anti-CD28 coated beads, T-cell stimulations and readout was performed in a highly defined in vitro system using four different pMHC molecules per stimulation condition and 8 different pMHC molecules per readout condition.
The purified co-stimulatory mouse IgG2a anti human CD28 Ab 9.3 (Jung et al., 1987) was chemically biotinylated using Sulfo-N-hydroxysuccinimidobiotin as recommended by the manufacturer (Perbio, Bonn, Germany). Beads used were 5.6 μm diameter streptavidin coated polystyrene particles (Bangs Laboratories, Illinois, USA).
pMHC used for positive and negative control stimulations were A*0201/MLA-001 (peptide […] (SEQ ID NO. 664) from modified Melan-A/MART-1) and A*0201/DDX5-001 ([…] from DDX5, SEQ ID NO. 665), respectively.
800.000 beads/200 μl were coated in 96-well plates in the presence of 4×12.5 ng different biotin-pMHC, washed and 600 ng biotin anti-CD28 were added subsequently in a volume of 200 μl. […]

HLA-A*02:01 = HLA-A*02:01 (Homo sapiens, UniProt P04439, D140Y/D185E/D98H/E176V/E277Q/G131W/G231S/I119V/I121R/I166T/I218V/L300P/L318F/N151K/N90K/P208A/P217A/Q86G/Q94H/R138H/R169H/T345S); experiment: MHC binding assay (UV-ligand exchange, anti-β2m ELISA, peptide exchange yield); conditions: binding to HLA-A*02:01
Procedure, shortened: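 Yield of stabilized complexes quantified via the β2m light chain in an ELISA (streptavidin capture, 100-fold diluted monomers, HRP anti-β2m 2 ug/ml at 37 °C, TMB, A450). The complexes come from UV-triggered replacement of a photocleavable ligand by the candidate peptide.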

“319 (SLEPQIQPV; listed as Homo sapiens) [compound 319]” was tested, and the “Wells positive [%]” value (CD8+ T cells) was ““+” (<20% = +)” and the “Peptide exchange (MHC class I binding score, peptide exchange yield)” value (from here on “Peptide exchange”) (HLA-A*02:01) was ““++” (>20% = ++)”.

With “40 (TLLVKVFSV; listed as Homo sapiens) [compound 40]” the “Wells positive [%]” value (CD8+ T cells) was ““++” (20% - 49% = ++)” and the “Peptide exchange” value (HLA-A*02:01) was ““+++” (>50 = +++)”.

With “395 (ALALGGIAVV; listed as Homo sapiens) [compound 395]” the “Wells positive [%]” value (CD8+ T cells) was ““+++” (50% - 69% = +++)” and the “Peptide exchange” value (HLA-A*02:01) was ““++++” (>75% = ++++)”.

“118 (KLIDNNINV; listed as Homo sapiens) [compound 118]” was tested, and the “Wells positive [%]” value (CD8+ T cells) was ““+” (<20% = +)” and the “Peptide exchange” value (HLA-A*02:01) was ““+++” (>50 = +++)”.

For “518 (KLNAEVACV; listed as Homo sapiens) [compound 518]”, the “Wells positive [%]” value (CD8+ T cells) was ““++” (20% - 49% = ++)” and the “Peptide exchange” value (HLA-A*02:01) was ““+++” (>50 = +++)”.

In the case of “3 (SLASKLTTL; listed as Homo sapiens) [compound 3]”, the “Wells positive [%]” value (CD8+ T cells) is reported as ““+” (<20% = +)” and the “Peptide exchange” value (HLA-A*02:01) is reported as ““++++” (>75% = ++++)”.

With “511 (FLDPYCSASV; listed as Homo sapiens) [compound 511]” the “Wells positive [%]” value (CD8+ T cells) was ““+” (<20% = +)” and the “Peptide exchange” value (HLA-A*02:01) was ““++” (>20% = ++)”.

“60 (SLTIDGIYYV; listed as Homo sapiens) [compound 60]” was tested, and the “Wells positive [%]” value (CD8+ T cells) was ““++++” (≥70% = ++++)” and the “Peptide exchange” value (HLA-A*02:01) was ““++++” (>75% = ++++)”.

In the case of “384 (ILFANPNIFV; listed as Homo sapiens) [compound 384]”, the “Wells positive [%]” value (CD8+ T cells) is reported as ““+” (<20% = +)” and the “Peptide exchange” value (HLA-A*02:01) is reported as ““+++” (>50 = +++)”.

With “11 (KIFEMLEGV; listed as Homo sapiens) [compound 11]” the “Wells positive [%]” value (CD8+ T cells) was ““+” (<20% = +)” and the “Peptide exchange” value (HLA-A*02:01) was ““+++” (>50 = +++)”.

“454 (KLPPPPPQA; listed as Homo sapiens) [compound 454]” was tested, and the “Wells positive [%]” value (CD8+ T cells) was ““++” (20% - 49% = ++)” and the “Peptide exchange” value (HLA-A*02:01) was ““+++” (>50 = +++)”.

For “215 (QLINHLHAV; listed as Homo sapiens) [compound 215]”, the “Wells positive [%]” value (CD8+ T cells) was ““++” (20% - 49% = ++)” and the “Peptide exchange” value (HLA-A*02:01) was ““+++” (>50 = +++)”.

In the case of “463 (SLVESHLSDQLTL; listed as Homo sapiens) [compound 463]”, the “Wells positive [%]” value (CD8+ T cells) is reported as ““++” (20% - 49% = ++)” and the “Peptide exchange” value (HLA-A*02:01) is reported as ““+++” (>50 = +++)”.

With “56 (KLYEGIPVLL; listed as Homo sapiens) [compound 56]” the “Wells positive [%]” value (CD8+ T cells) was ““+” (<20% = +)” and the “Peptide exchange” value (HLA-A*02:01) was ““++++” (>75% = ++++)”.

“603 (FLIEPEHVNTV; listed as Homo sapiens) [compound 603]” was tested, and the “Wells positive [%]” value (CD8+ T cells) was ““+” (<20% = +)” and the “Peptide exchange” value (HLA-A*02:01) was ““++” (>20% = ++)”.

For “446 (QLIPALAKV; listed as Homo sapiens) [compound 446]”, the “Wells positive [%]” value (CD8+ T cells) was ““++” (20% - 49% = ++)” and the “Peptide exchange” value (HLA-A*02:01) was ““+++” (>50 = +++)”.

For “652 (TLWYRAPEV; listed as Homo sapiens) [compound 652]”, the donors (CD8+ T cells) was “++++ (≥70% = ++++)” and the wells (CD8+ T cells) was “+++ (50% - 69% = +++)”.

“79 (SLFIGEKAVLL; listed as Homo sapiens) [compound 79]” was tested, and the “Wells positive [%]” value (CD8+ T cells) was ““+” (<20% = +)” and the “Peptide exchange” value (HLA-A*02:01) was ““+++” (>50 = +++)”.

“7 (SLVGLLLYL; listed as Homo sapiens) [compound 7]” was tested, and the “Wells positive [%]” value (CD8+ T cells) was ““++” (20% - 49% = ++)” and the “Peptide exchange” value (HLA-A*02:01) was ““++++” (>75% = ++++)”.

With “460 (AMLEKNYKL; listed as Homo sapiens) [compound 460]” the “Wells positive [%]” value (CD8+ T cells) was ““+” (<20% = +)” and the “Peptide exchange” value (HLA-A*02:01) was ““++++” (>75% = ++++)”.

With “489 (KMWEELPEVV; listed as Homo sapiens) [compound 489]” the “Wells positive [%]” value (CD8+ T cells) was ““+” (<20% = +)” and the “Peptide exchange” value (HLA-A*02:01) was ““+++” (>50 = +++)”.

For “48 (ALAELYEDEV; listed as Homo sapiens) [compound 48]”, the “Wells positive [%]” value (CD8+ T cells) was ““+” (<20% = +)” and the “Peptide exchange” value (HLA-A*02:01) was ““+++” (>50 = +++)”.

For “38 (FLLEDDIHVS; listed as Homo sapiens) [compound 38]”, the “Wells positive [%]” value (CD8+ T cells) was ““+” (<20% = +)” and the “Peptide exchange” value (HLA-A*02:01) was ““+++” (>50 = +++)”.

With “648 (LLWGNAIFL; listed as Homo sapiens) [compound 648]” the donors (CD8+ T cells) was “+++ (50% - 69% = +++)” and the wells (CD8+ T cells) was “++ (20% - 49% = ++)”.

In the case of “143 (LLLDITPEI; listed as Homo sapiens) [compound 143]”, the “Wells positive [%]” value (CD8+ T cells) is reported as ““+” (<20% = +)” and the “Peptide exchange” value (HLA-A*02:01) is reported as ““++++” (>75% = ++++)”.

In the case of “36 (YVLEDLEVTV; listed as Homo sapiens) [compound 36]”, the “Wells positive [%]” value (CD8+ T cells) is reported as ““+” (<20% = +)” and the “Peptide exchange” value (HLA-A*02:01) is reported as ““++” (>20% = ++)”.

For “662 (KIQEILTQV; listed as Homo sapiens) [compound 662]”, the donors (CD8+ T cells) was “+++ (50% - 69% = +++)” and the wells (CD8+ T cells) was “+ (<20% = +)”.

With “663 (KIQEMQHFL; listed as Homo sapiens) [compound 663]” the donors (CD8+ T cells) was “+++ (50% - 69% = +++)” and the wells (CD8+ T cells) was “+ (<20% = +)”.

With “659 (ILFPDIIARA; listed as Homo sapiens) [compound 659]” the donors (CD8+ T cells) was “+++ (50% - 69% = +++)” and the wells (CD8+ T cells) was “+ (<20% = +)”.

In the case of “314 (ALIAEGIALV; listed as Homo sapiens) [compound 314]”, the “Peptide exchange” value (HLA-A*02:01) is reported as ““+++” (>50 = +++)”.

With “235 (YLNDLHEVLL; listed as Homo sapiens) [compound 235]” the “Peptide exchange” value (HLA-A*02:01) was ““++++” (>75% = ++++)”.

With “538 (LLLAHIIAL; listed as Homo sapiens) [compound 538]” the “Peptide exchange” value (HLA-A*02:01) was ““++” (>20% = ++)”.

For “262 (LLWGDLIWL; listed as Homo sapiens) [compound 262]”, the “Peptide exchange” value (HLA-A*02:01) was ““+++” (>50 = +++)”.

With “165 (SLLDEIRAV; listed as Homo sapiens) [compound 165]” the “Peptide exchange” value (HLA-A*02:01) was ““+++” (>50 = +++)”.

In the case of “189 (ALQRKLPYV; listed as Homo sapiens) [compound 189]”, the “Peptide exchange” value (HLA-A*02:01) is reported as ““+++” (>50 = +++)”.

For “298 (VMITKLVEV; listed as Homo sapiens) [compound 298]”, the “Peptide exchange” value (HLA-A*02:01) was ““+++” (>50 = +++)”.

“466 (VLIANLEKL; listed as Homo sapiens) [compound 466]” was tested, and the “Peptide exchange” value (HLA-A*02:01) was ““++++” (>75% = ++++)”.

With “135 (ALSEVDFQL; listed as Homo sapiens) [compound 135]” the “Peptide exchange” value (HLA-A*02:01) was ““+++” (>50 = +++)”.

For “545 (LLADLLHNV; listed as Homo sapiens) [compound 545]”, the “Peptide exchange” value (HLA-A*02:01) was ““+++” (>50 = +++)”.
